Source: patent US20240350392A1, “COMPOSITION WITH BIOLOGICALLY ACTIVE AGENT” (THE BOOTS COMPANY PLC, priority 2021, published 2024)
Residues, ends and D or L forms follow the SMILES beside them. *: point of attachment. Palmitoyl = CCCCCCCCCCCCCCCC(=O)*

Experiment: Franz cell ex vivo skin explant penetration with 3D OrbiSIMS analysis
Type: in vitro ADME, human
Conditions: after 1 hour in Franz cell; formulation with glycerin+methyl gluceth-20 versus glycerin only (FIG. 1)
Experimental: For ex vivo analysis, full thickness human skin tissue was removed during cosmetic surgery from Caucasian female donors (aged 35-70). The explant was frozen immediately post-surgery, shipped and stored at −20° C. prior to use.
The tissue was then defrosted, cut and mounted, dermal side down, in a Franz-type static diffusion cell set-up (Franz, 1975), with an exposed surface area of 1.1 cm^2. Infinite doses of the cosmetic formulations were applied to the donor chamber, with the explant exposed to the formulations for 1 hour in a water bath set to 36.5° C. Sink conditions were maintained throughout the experiments.
After 1 hour, the Franz cell was dismantled, excess formulation was removed with a dry sponge and the skin explant was wiped with a sponge soaked in Teepol Solution (3% v/v). Next, the explant was dehydrated under vacuum at room temperature for 24 hours before 3D OrbiSIMS analysis 3D OrbiSIMS Analysis […]
A 20 KeV Ar 3000^+ analysis beam with a diameter of 20 μm was used as the primary ion source. Samples were analysed at ambient temperature across a 400×400 μm area in positive polarity with sawtooth raster mode and a total crater size of 486×486 μm. […] Mass spectra were recorded at a resolution of 240,000 at m/z 200 in the mass range of 75 to 1,125 m/z. […]

CCCCCCCCCCCCCCCC(=O)NCC(=O)N[C@@H](Cc1c[nH]cn1)C(=O)N[C@@H](CCCCN)C(=O)O [Pal-GHK, N-Palmitoyl-Gly-His-Lys] (Palmitoyl-Gly-His-Lys-OH; C-terminus assumed)
Pal-GHK peptide ion intensity in skin explant: more peptide ion present
